Common to all, as to assay type: in vivo
The test system of assay [1] is Musca domestica. Kind of assay: Insecticidal test, Musca domestica (houseflies - adults), contact. Particulars: 24 h, cotton wool/sugar, 1 day, read-out: grading of mortality, MD. The essentials:
(§1)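 Compound dissolved in acetone, diluted with water containing 0.01% wetting agent to 500, 250 or 100 ppm. Pests on host plant or food; pests and/or medium treated. Mortality scored 1–3 days later, graded A (80–100%; 70–100% for S. exigua), B (50–79%; 50–69%), C (<50%).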

For a further assay, the system named is Diabrotica balteata. Kind of assay: Insecticidal test, Diabrotica balteata (rootworm larvae), residual. Particulars: 72 h, filter paper/maize seed, 3 days, read-out: grading of mortality, DB. The essentials: as §1
The subject of a further assay is Blattella germanica. Kind of assay: Insecticidal test, Blattella germanica (cockroach nymphs), residual. Particulars: 72 h, plastic pot, 3 days, read-out: grading of mortality, BG. The essentials: as §1
Another assay has as its system Nilaparvata lugens. Kind of assay: Insecticidal test, Nilaparvata lugens (brown planthopper), contact. Particulars: 72 h, Cabbage leaf, 3 days, read-out: grading of mortality, NL. The essentials: as §1
The test system of another assay is Myzus persicae. Kind of assay: Insecticidal test, Myzus persicae (aphids), contact. Particulars: 72 h, Chinese Cabbage leaf, 3 days, read-out: grading of mortality, MP. The essentials:
as §1

The test system of the next assay is Heliothis virescens. Kind of assay: whole plant or invertebrate. Particulars: in Gossypium hirsutum, 72 h, read-out: grading of mortality, HV. The essentials: as §1
The subject of assay [2] is Musca domestica. Kind of assay: Knockdown test, Musca domestica (houseflies - adults). Particulars: cotton wool/sugar, 4 hours, read-out: grading of knockdown, MD/KD. The essentials:
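Knockdown scores were banded: A 80–100%, B 50–79%, C <50%. Test preparations of 500, 250 or 100 ppm compound were made in acetone, then diluted with water containing 0.01% Lissapol NX, and applied to Musca domestica adults.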

In a further assay the test system is Tetranychus urticae. Kind of assay: Insecticidal/acaricidal test, Tetranychus urticae (spider mites - adult), contact. Particulars: 72 h, French bean leaf, 3 days, read-out: grading of mortality, TU. The essentials:
as §1

`COc1ccc(C(COCc2ccc(F)c(Oc3ccccc3)c2)C(F)(F)F)cc1` (centres unmarked) [Compound 29, 1,1,1-Trifluoro-2-(4-methoxyphenyl)-3-(3-phenoxy-4-fluorobenzyloxy)propane]: the mortality at 100 ppm in the assay on Musca domestica [1], in the assay on Diabrotica balteata, with Blattella germanica, with Nilaparvata lugens, in the assay on Myzus persicae and in the assay on Heliothis virescens was 80 to 100% throughout. The mortality (usually the share of the test organisms that died) at 100 ppm with Tetranychus urticae is less than 50%. Moreover, in the assay on Musca domestica [2], the pest or weed control at 100 ppm lay within 80 to 100%.
As to `Fc1ccc(COCC(c2ccc3c(c2)CCC3)C(F)(F)F)cc1Oc1ccccc1` (centres unmarked) [Compound 19, 1,1,1-Trifluoro-2-(5-indanyl)-3-(3-phenoxy-4-fluorobenzyloxy)propane], the mortality at 250 ppm in the assay with Musca domestica [1], in the assay on Diabrotica balteata, in the assay with Blattella germanica, in the assay with Nilaparvata lugens, in the assay with Myzus persicae and with Heliothis virescens was 80 to 100% throughout. Further, in the assay with Tetranychus urticae, the mortality at 250 ppm is less than 50%. In addition, the pest or weed control at 250 ppm in the assay on Musca domestica [2] lay within 80 to 100%.
Take `CCOc1ccc(C(COCc2ccc(F)c(Oc3ccc(Br)cc3)c2)C(F)(F)F)cc1` (centres unmarked) [Compound 6, 1,1,1-Trifluoro-2-(4-ethoxyphenyl)-3-(3-(4-bromophenoxy)-4-fluorobenzyloxy)propane]: the mortality at 500 ppm with Musca domestica [1], in the assay with Diabrotica balteata, in the assay with Blattella germanica, in the assay with Nilaparvata lugens, with Myzus persicae and in the assay with Heliothis virescens was 80 to 100% each time. Besides, the mortality at 500 ppm in the assay with Tetranychus urticae was in the range of 80 to 100%. Also, in the assay with Musca domestica [2], the pest or weed control at 500 ppm was in the range of 80 to 100%.
Regarding `Fc1ccc(COC=C(c2ccc3c(c2)CCC3)C(F)(F)F)cc1Oc1ccccc1` [Compound 459, 1,1,1-trifluoro-2-(5-indanyl)-3-(3-phenoxy-4-fluorobenzyloxy)prop-2-ene], the mortality at 500 ppm is less than 50% in the assay with Musca domestica [1]; 80 to 100% with Diabrotica balteata; less than 50% with Blattella germanica; less than 50% in the assay with Nilaparvata lugens; less than 50% with Myzus persicae; less than 50% in the assay with Heliothis virescens. Besides, the mortality at 500 ppm with Tetranychus urticae was in the range of 80 to 100%. Besides, in the assay on Musca domestica [2], the pest or weed control at 500 ppm is 50 to 79%.
As for `CCOc1ccc(C(F)(COCc2cccc(Oc3ccc(Cl)cc3)c2)C(F)(F)F)cc1` (centres unmarked) [Compound 79, 1,1,1,2-Tetrafluoro-2-(4-ethoxyphenyl)-3-(3-(4-chlorophenoxy)benzyloxy)propane], the mortality at 250 ppm with Musca domestica [1] was 80 to 100%; with Diabrotica balteata, less than 50%; in the assay on Blattella germanica, 80 to 100%; in the assay on Nilaparvata lugens, 80 to 100%; with Myzus persicae, less than 50%; with Heliothis virescens, 80 to 100%. For the same compound, the mortality at 250 ppm with Tetranychus urticae is less than 50%. The pest or weed control at 250 ppm with Musca domestica [2] was 80 to 100%.
Turning to `FC(F)(F)Oc1ccc(C(F)(COCc2cccc(Oc3ccccc3)c2)C(F)(F)F)cc1` (centres unmarked) [Compound 82, 1,1,1,2-Tetrafluoro-2-(4-trifluoromethoxyphenyl)-3-(3-phenoxybenzyloxy)propane], the mortality at 500 ppm in the assay with Musca domestica [1] was 80 to 100%; with Diabrotica balteata, 80 to 100%; in the assay with Blattella germanica, 80 to 100%; in the assay with Nilaparvata lugens, less than 50%; in the assay on Myzus persicae, 80 to 100%; in the assay on Heliothis virescens, 80 to 100%. For the same compound, in the assay on Tetranychus urticae, the mortality at 500 ppm is less than 50%. In the assay on Musca domestica [2], the pest or weed control at 500 ppm lay in the range of 80 to 100%.
Turning to `CCOc1ccc(C(Cl)(COCc2cccc(Oc3ccccc3)c2)C(F)(F)F)cc1` (centres unmarked) [Compound 38, 1,1,1-trifluoro-2-chloro-2-(4-ethoxyphenyl)-3-(3-phenoxybenzyloxy)propane], the mortality at 100 ppm in the assay on Musca domestica [1] is 80 to 100%; with Diabrotica balteata, less than 50%; in the assay on Blattella germanica, 80 to 100%; in the assay on Nilaparvata lugens, 50 to 79%; in the assay on Myzus persicae, 80 to 100%; in the assay on Heliothis virescens it was 80 to 100%. Moreover, the mortality at 100 ppm with Tetranychus urticae is less than 50%. Besides, the pest or weed control at 100 ppm with Musca domestica [2] was less than 50%.

These data come from US5225607A, “Insecticidal ethers” (Imperial Chemical Industries PLC, priority 1985, dated 1993).
